In brackets after ≈: the same amount, converted by molar mass. Read-outs that look alike come from different tables or passages of the source.
Assays:
[1] = tested on: A. baumannii BM4652 strains; experiment: Potentiation of teicoplanin MIC by LpxA compound 4; type: cell-based, Acinetobacter baumannii
[2] = target: M. tuberculosis Dihydrofolate reductase (DHFR) (Mycobacterium tuberculosis, UniProt P9WNX1); experiment: biochemical
[3] = tested on: M. tuberculosis H37Rv; experiment: MIC determination against M. tuberculosis H37Rv (resazurin); type: cell-based; details: Mycobacterium tuberculosis
Procedure: 409 remaining NADPH to convert resazurin into the fluorescent resorufin14. The assay buffer containing
410 81.4 mM Hepes pH 7.8, 300 mM KCl, 0.4 mg/mL BSA was used to make the enzyme addition containing
411 1.2 μg/mL Mtb DHFR and 50 μM NADPH. This was added in equal volume (5 μL) to a substrate solution
412 composed of 240 µM DHF in H2O and incubated for 50 min. Developing solution was prepared with
413 0.045 mM Resazurin and 0.6 U/ml Diaphorase in 200 mM sodium phosphate buffer pH 7.8 and 5 μL was
414 added. The experiments were conducted in black 384-well plates (Greiner Catalog # 784076) and all
415 liquid additions were conducted using a Multidrop combi (Thermo Scientific). The plate was read on a
416 ViewLux following a 10 minute delay. Resorufin light production was measured using appropriate
417 Viewlux filters: Ex: 525 / 20 Pol (BODIPY TMR FP) Em: 598 / 25 (BODIPY TMR) (B04). Assay plates were
418 pre-dispensed with 100 nL DMSO or with 100 nL compounds dissolved in neat DMSO using an Echo®
419 liquid handler (Labcyte Inc.) where all wells contained compound samples, except wells in columns 6
420 and 18 that contained DMSO control. Column 6 represented 100% Mtb DHFR activity in the absence of
421 GSK compounds. […] Compounds were
422 tested at 1% DMSO in 11 point dose response with a 1:3 dilution and fit to a standard 4 parameter fit to
423 calculate an IC50 value and are reported as the average of two replicates. Standard deviation values
424 were calculated using the n-1 method.
428 Minimum Inhibitory Concentration Assays:
429 MIC determination against M. tuberculosis H37Rv:
430 The measurement of the Minimum Inhibitory Concentration (MIC) against M. tuberculosis H37Rv for
431 each tested compound was performed in 96-well flat-bottom, polystyrene microtiter plates in a final
432 volume of 100 μl. Ten two-fold drug dilutions in neat DMSO starting at 50 mM were performed. Drug […]
440 saline). […] Fluorescence was measured (Spectramax M5 […]
444 Minimum inhibitory concentrations (MICs) of compounds were determined using broth microdilution […]

[4] = tested on: A. baumannii BM4652 efflux mutant, pRK415 and pRK415-UppS; experiment: microbe, parasite or virus in culture; type: cell-based, Acinetobacter baumannii; details: 30 μg/ml polymyxin B nonapeptide; for MIC: Acinetobacter baumannii; for Fold MIC increase: pRK415-UppS overexpressing strain relative to parent strain
[5] = tested on: E. coli TOP10 ∆TolC, pHN678’ and pHN678’-LolA antisense; experiment: MoA study: MIC in lolA antisense expressor; type: cell-based, Escherichia coli; details: Escherichia coli
[6] = tested on: S. aureus WCUH29 wild type; experiment: MIC broth microdilution; type: cell-based, Staphylococcus aureus; details: Staphylococcus aureus, WCUH29WILDTYPE; S. aureus WCUH29 wild type; read-out: MIC
[7] = target: S. aureus isoleucyl-tRNA synthetase (IRS) (Staphylococcus aureus, UniProt P41972); experiment: t-RNA synthetase biochemical assay (IRS); details: average of two replicates with s.d.
Sequence of S. aureus isoleucyl-tRNA synthetase (IRS) (P41972 whole entry): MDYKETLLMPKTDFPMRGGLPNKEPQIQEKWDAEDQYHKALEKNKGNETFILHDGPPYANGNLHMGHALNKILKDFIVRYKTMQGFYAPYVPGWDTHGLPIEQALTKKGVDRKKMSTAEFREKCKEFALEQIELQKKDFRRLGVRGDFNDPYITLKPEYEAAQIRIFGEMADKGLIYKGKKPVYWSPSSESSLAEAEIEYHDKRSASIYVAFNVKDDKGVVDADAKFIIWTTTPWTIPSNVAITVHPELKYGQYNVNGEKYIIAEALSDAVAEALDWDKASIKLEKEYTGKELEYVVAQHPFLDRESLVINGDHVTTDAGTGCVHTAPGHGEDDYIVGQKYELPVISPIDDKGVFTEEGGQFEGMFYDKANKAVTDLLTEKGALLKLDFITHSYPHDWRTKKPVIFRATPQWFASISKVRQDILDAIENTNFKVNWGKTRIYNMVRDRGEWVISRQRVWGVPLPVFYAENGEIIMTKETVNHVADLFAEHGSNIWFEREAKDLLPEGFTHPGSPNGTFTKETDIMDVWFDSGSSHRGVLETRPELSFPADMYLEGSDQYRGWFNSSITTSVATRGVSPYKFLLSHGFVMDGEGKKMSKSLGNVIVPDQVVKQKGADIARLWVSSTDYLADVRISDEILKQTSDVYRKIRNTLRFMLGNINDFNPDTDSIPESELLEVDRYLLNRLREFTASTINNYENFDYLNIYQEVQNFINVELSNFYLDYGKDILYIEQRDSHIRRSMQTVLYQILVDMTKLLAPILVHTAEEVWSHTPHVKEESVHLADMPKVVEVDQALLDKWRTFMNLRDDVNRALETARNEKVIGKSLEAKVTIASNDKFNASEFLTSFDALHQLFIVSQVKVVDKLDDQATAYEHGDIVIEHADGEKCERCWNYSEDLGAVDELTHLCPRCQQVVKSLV

Sequence of M. tuberculosis Dihydrofolate reductase (DHFR) (P9WNX1 whole entry): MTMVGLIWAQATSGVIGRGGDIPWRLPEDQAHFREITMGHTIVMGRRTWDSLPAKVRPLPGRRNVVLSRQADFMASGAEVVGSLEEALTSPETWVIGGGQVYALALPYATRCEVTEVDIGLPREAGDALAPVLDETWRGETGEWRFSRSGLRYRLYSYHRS

teicoplanin
MIC of teicoplanin ([1]; A. baumannii BM4652/pRK415-LpxA, compound 4 at 0 µg/ml): > 64 µg/mL | MIC of teicoplanin ([1]; A. baumannii BM4652/pRK415-LpxA, compound 4 at 4 µg/ml): > 64 µg/mL | MIC of teicoplanin ([1]; A. baumannii BM4652/pRK415-LpxA, compound 4 at 8 µg/ml): > 64 µg/mL | MIC of teicoplanin ([1]; A. baumannii BM4652/pRK415-LpxA, compound 4 at 16 µg/ml): > 64 µg/mL | MIC of teicoplanin ([1]; A. baumannii BM4652/pRK415-LpxA, compound 4 at 32 µg/ml): > 64 µg/mL | MIC of teicoplanin ([1]; A. baumannii BM4652/pRK415-LpxA, compound 4 at 64 µg/ml): > 64 µg/mL | MIC of teicoplanin ([1]; A. baumannii BM4652/pRK415-LpxA, compound 4 at 128 µg/ml): > 64 µg/mL | MIC of teicoplanin ([1]; A. baumannii BM4652/pRK415, compound 4 at 0 µg/ml): > 64 µg/mL | MIC of teicoplanin ([1]; A. baumannii BM4652/pRK415, compound 4 at 4 µg/ml): > 64 µg/mL | MIC of teicoplanin ([1]; A. baumannii BM4652/pRK415, compound 4 at 8 µg/ml): > 64 µg/mL | MIC of teicoplanin ([1]; A. baumannii BM4652/pRK415, compound 4 at 16 µg/ml): > 64 µg/mL | MIC of teicoplanin ([1]; A. baumannii BM4652/pRK415, compound 4 at 32 µg/ml): 0.5 µg/mL | MIC of teicoplanin ([1]; A. baumannii BM4652/pRK415, compound 4 at 64 µg/ml): 0.5 µg/mL | MIC of teicoplanin ([1]; A. baumannii BM4652/pRK415, compound 4 at 128 µg/ml): 0.5 µg/mL | MIC of teicoplanin ([1]; A. baumannii BM4652, compound 4 at 0 µg/ml): > 64 µg/mL | MIC of teicoplanin ([1]; A. baumannii BM4652, compound 4 at 4 µg/ml): > 64 µg/mL | MIC of teicoplanin ([1]; A. baumannii BM4652, compound 4 at 8 µg/ml): > 64 µg/mL | MIC of teicoplanin ([1]; A. baumannii BM4652, compound 4 at 16 µg/ml): 16 µg/mL | MIC of teicoplanin ([1]; A. baumannii BM4652, compound 4 at 32 µg/ml): 0.5 µg/mL | MIC of teicoplanin ([1]; A. baumannii BM4652, compound 4 at 64 µg/ml): 0.5 µg/mL | MIC of teicoplanin ([1]; A. baumannii BM4652, compound 4 at 128 µg/ml): 0.5 µg/mL

COc1ccc(OC)c(Cc2cnc3nc(N)nc(N)c3c2C)c1 [Compound 8]
IC50 [2]: 610 ± 420 nM | MIC [3]: 2.5 µM (≈ 0.813 µg/mL)

CC(C)(O/N=C(\C(=O)N[C@@H]1C(=O)N2C(C(=O)[O-])=C(C[n+]3ccccc3)CS[C@H]12)c1csc(N)n1)C(=O)O [Ceftazidime]
MIC ([4]; A. baumannii BM4652 efflux mutant + pRK415-UppS): 0.5 µg/mL | MIC ([4]; A. baumannii BM4652 efflux mutant + pRK415): 0.5 µg/mL | MIC ([4]; A. baumannii BM4652 efflux mutant, N/A (no plasmid)): 0.5 µg/mL | Fold MIC increase [4]: 1 fold | Fold MIC increase ([4]; listed as ceftazidime): unchanged

C[C@@H](O)[C@H]1C(=O)N2C(C(=O)O)=C(SCCN=CN)C[C@H]12 [Imipenem]
MIC ([5]; E. coli TOP10 ∆TolC + pHN678’): 1 µg/mL | MIC ([5]; E. coli TOP10 ∆TolC + pHN678’-LolA antisense): 1 µg/mL

Cc1ccc(S(=O)(=O)NCCN(CCC(N)=O)C(=O)c2cc(O)cc(NC(=O)CN3C(=O)C(C)Oc4ccccc43)c2)cc1 (stereo not shown) [Compound 7]
IC50 ([2]; M. tuberculosis DHFR, average of two replicates with s.d., read-out: IC50): 492 ± 4 nM | MIC [3]: 80 µM (≈ 49.9 µg/mL)

CNC(=O)c1cccc(CNCc2cc(C(=O)N3CCN(c4cc(Cl)cc(Cl)c4)CC3)cc(C(C)(C)C)c2)c1 [Compound 2]
MIC [6]: 4 µg/mL (≈ 7.05 µM) | IC50 [7]: 750 ± 210 nM

Source: PMC5520047, “Prioritizing multiple therapeutic targets in parallel using automated DNA-encoded library screening” (Nature Communications, 2017)
